Assays:
EBNA1 [1] = test: DS DNA affinity chromatography in the presence or absence of NAD; assay type: binding, Epstein-Barr virus; conditions: 1 mM NAD
Description: To identify cellular proteins that mediate EBNA1 functions at OriP, a stable HeLa cell derivative (SL1) was established expressing epitope tagged EBNA1 (HA-EBNA1) and episomal OriP. SL1 cells were generated by retroviral transformation of HeLa S3 cells with HA-EBNA1 lacking Gly-Ala repeats (Δ102-325). HeLa and SL1 cell nuclear extracts were prepared by the method of Dignam, J. D. et al, 1983 Nucl. Acids Res. 11, 1475-1489. Nuclear pellets were solubilized by sonication in RIPA buffer (1% Triton×100, 0.1% sodium deoxycholate, 140 mM NaCl, 50 mM Hepes (pH 7.5), 1 mM EDTA, 1 mM DTT, and protease inhibitors-1 mM PMSF, 1 mM benzamidine, 10 μg/ml aprotinin, 20 μg/ml leupeptine, 1 μg/ml pepstatin, 25 μg/ml TLCK and 50 μg/ml TPCK). Sonicated nuclear pellets were clarified by centrifugation at 39,000×g for 30 minutes. This solubilized nuclear pellets were combined with nuclear extract (1:1) made 6 mM MgCl2, and preincubated with 400 μg/ml sonicated herring sperm DNA for 30 minutes. Biotinylated PCR fragments were coupled to streptavidin conjugated magnetic bead (Dynal) and then incubated nuclear extracts for 45 minutes at 25° C. The bound material was washed 4 times in D150 buffer (20 mM HEPES, pH7.9, 20% glycerol, 0.2 mM EDTA, 150 mM KCl, 1 mM DTT, 1 mM PMSF) and then eluted with D1000 (same as above except 1000 mM KCl). […]

episomal plasmids = test: Transient replication of episomal plasmids; assay type: cell-based
OriP = OriP plasmid maintenance in cells; assay type: cell-based, Epstein-Barr virus; conditions: for OriP maintenance, dependence on nonamer binding sites: D98/HR1 cells transfected with OriP wt or OriPΔa,b,c, 3 weeks after sorting, Southern analysis of Hirt lysates; for plasmid maintenance of OriP: FIG. 4 and FIG. 5C
Description: A green fluorescent protein (GFP) reporter gene is inserted into the polylinker site of plasmid pREP10 (Invitrogen), which contains the EBV oriP and EBNA-1 under the control of its weak, naturally-occurring viral promoter. The GFP reporter gene allows for rapid flow cytometric (FACS) analysis to determine the percent of cells carrying the DNA vector. FACS is also used to cell sort, i.e., to obtain a homogeneous population of cells all expressing GFP and therefore carrying the vector.
The recombinant episomal plasmid GFP-REP10 is transfected into recipient mammalian or avian host cells and cells are sorted after 48 hours to obtain a homogeneous population (100%) expressing the GFP label. Test compounds, individually or in combination, or controls are applied to samples of the culture medium to test for the effect on GFP positive cells. Cells treated with test compounds, or with positive and/or negative controls, are assayed for the rate of loss of GFP over several days to weeks. These rates of loss are compared for each test compound with the relevant controls to determine novel test compounds that enhance or decrease episomal maintenance in the cell.
Confirmation of episomal DNA is determined at the experimental endpoint of between 3 to 5 weeks, using the HIRT extraction and Southern blotting procedure, described in e.g., Yates et al, 2000, J. Virol. 74, 4512-4522.
In one study, D98/HR1 cells were transfected with OriP wt or OriPΔa,b,c, GFP-selected by FACS, and cultured in the presence of niacinamide (PARP inhibitor), hydroxyurea (PARP stimulator), or 3-AB (PARP inhibitor). OriP maintenance was assayed 3 weeks after sorting by Southern analysis of Hirt lysates.

EBV genome = test: Stability of the EBV genome in cells; assay type: cell-based, Epstein-Barr virus; conditions: FIG. 5A and FIG. 5B
histone H3 = test: OriP-associated histone modification by ChIP assay in Akata cells; assay type: cell-based
Description: Akata cells were cultured without treatment, with H2O2, hydroxyurea (HU) or niacinamide as indicated above each lane. OriP-associated histone modification was measured by ChIP assay with antibodies specific for Flag, Acetylated H3, acetylated H4, or S10 phosphorylated H3.

hRap1 = test: ChIP assay of hRap1 association with OriP in D98/HR1 cells; assay type: cell-based, human; conditions: treated D98/HR1 cells
EBNA1 [2] = test: EBNA1 binding to DS in Akata cells; assay type: cell-based, Epstein-Barr virus; conditions: preliminary results
Description: (§1) EBNA1 and MCM3 binding to DS were assayed in Akata cells cultured with no treatment, with hydroxyurea, or with niacinamide. […] Future quantification of these preliminary results will be necessary to determine the significance of MCM3 and other MCM complex components interaction with OriP.

TRF1 = test: ChIP assay of TRF1 association with OriP in D98/HR1 cells; assay type: cell-based; conditions: treated D98/HR1 cells
Description: (§2) To determine if telomere associated proteins EBNA1, TRF2 and Tankyrase associate with EBV oriP episomes in naturally infected cell lines, the chromatin immunoprecipitation) (CHIP) assay was used with EBV positive RAJI Burkitt lymphoma cell lines that contain ˜5-25 copies of episomal EBV. Chromatin immunoprecipitation was performed as described in Galande, S. & Kohwi-Shigematsu, 1999 J. Biol. Chem. 274, 20521-20528.
(§3) Briefly, asynchronous RAJI cells were cross-linked with formaldehyde, sonicated to generate chromatin DNA fragments of 400 bp average size, and then immunoprecipitation with various antibodies to FLAG-M2 (Sigma), EBNA1, Tankyrase, or TRF2. DNA fragments isolated from immunoprecipitation protein-DNA complexes (three-fold dilutions for each set of antibodies) were then amplified for 24 cycles by PCR with primer pairs specific for the DS region of EBV oriP (corresponding to EBV nucleotides 8586-9206, nucleotides 1-621 SEQ ID NO: 1), or for control EBV sequences surrounding the BRLF1 promoters (nucleotides 106,094-106,420, nucleotides 1-317 SEQ ID NO: 2), over 90 kb away from oriP and unlikely to share OriP binding proteins.
(§4) EBNA1, hRap1,and TRF1 association with OriP were determined by ChIP assay in cells that were treated with hydroxyurea or niacinamide. […]

EBNA1 [3] = test: ChIP assay of EBNA1 association with OriP in D98/HR1 cells; assay type: cell-based, Epstein-Barr virus; conditions: treated D98/HR1 cells
Description: as §2, §3, §4

MCM3 = MCM3 binding to DS in Akata cells; assay type: cell-based; conditions: preliminary results
Description: as §1

Structure (SMILES) | transient replication of episomal plasmids (episomal plasmids) | long term maintenance of episomal plasmids (OriP) | OriP maintenance, dependence on nonamer binding sites (OriP) | stability of the EBV genome in cells (EBV genome) | OriP-associated S10 phosphorylation of histone H3 (histone H3) | TRF1 association with OriP (TRF1) | plasmid maintenance of OriP (OriP) | MCM3 binding to DS (MCM3) | also measured
NC(=O)c1ccc[n+]([C@@H]2O[C@H](COP(=O)([O-])OP(=O)(O)OC[C@H]3O[C@@H](n4cnc5c(N)ncnc54)[C@H](O)[C@@H]3O)[C@@H](O)[C@H]2O)c1 [NAD] |  |  |  |  |  |  |  |  | association of EBNA1 with DS (EBNA1 [1]): strong inhibit the association of EBNA1
NC(=O)c1cccc(N)c1 [3-AB, 3-aminobenzamide] | weakly inhibit transient replication | stabilize long term maintenance | enhanced plasmid maintenance was dependent upon the nonamer binding sites in OriP | enhanced the stability of the EBV genome |  |  |  |  | 
NC(=O)NO [hydroxyurea] |  |  |  | decreased the stability of the EBV genome | inhibited S10 phosphorylation of histone H3 | reduced TRF1 association | decreased the maintenance of the OriP plasmid | decrease in EBNA1 and MCM3 association | hRap1 association with OriP (hRap1): not EBNA1 or hRap1; EBNA1 binding to DS (EBNA1 [2]): decrease in EBNA1 and MCM3 association; EBNA1 association with OriP (EBNA1 [3]): not EBNA1
NC(=O)c1cccnc1 [niacinamide] | weakly inhibit transient replication | stabilize long term maintenance | enhanced plasmid maintenance was dependent upon the nonamer binding sites in OriP | enhanced stability of the EBV genome |  |  | increased OriP maintenance | increased the MCM3 binding relative to EBNA1 | 
OO [H2O2, hydrogen peroxide] |  |  |  |  | inhibited H3 acetylation and S10 phosphorylation | TRF1 binding was reduced |  |  | OriP-associated histone H3 acetylation (histone H3): inhibited H3 acetylation

From patent publication US20040209239A1, “Methods and compositions fir identifying episomal dna virus infection treatment” (priority 2001, published 2004)
